Experiments:
[1] = Dynamic light scattering (DLS) of mRNA/peptoid formulations: particle size and polydispersity; type: physicochemical; details: Fluc mRNA/peptoid formulation; for Size PDI: size polydispersity index by DLS, 5:1 mass ratio; for Size (nm): volume average particle size/diameter by DLS, 5:1 mass ratio peptoid:cargo
Procedure, shortened: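 Fluc mRNA was complexed with amino lipidated peptoids by pipetting at a 5:1 peptoid:cargo mass ratio, peptoid in ethanol and mRNA in PBS pH 5.5 (1:3 volume ratio). DLS gave volume-average diameter (nm) and polydispersity index.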

[2] = mRNA encapsulation by fluorescence of Qubit RNA HS dye before and after lysis with Triton X-100; type: physicochemical; details: percentage of mRNA encapsulation; Fluc mRNA/peptoid formulation, 5:1 mass ratio
Procedure, shortened: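 Peptoid/Fluc mRNA nanoparticles were formed by pipette mixing at a 5:1 peptoid:mRNA mass ratio. Percent encapsulation came from Qubit RNA HS dye fluorescence before versus after particle lysis with Triton X-100.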

HeLa cells [3] = test: In vitro expression of firefly luciferase (Fluc) after treatment with Fluc mRNA/amino lipidated peptoid formulations, no PEG or 2% DMG-PEG2000; type: cell-based
Procedure, shortened: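 Peptoid/Fluc mRNA particles (5:1 w/w), without PEG or with DMG-PEG2000 pre-mixed into peptoid at 2% w/w, dosed at 100 ng mRNA/well on HeLa cells. Luciferase luminescence (RLU) read after 6 h and 24 h.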

HeLa cells [4] = test: In vitro Fluc expression with variable peptoid:mRNA mass ratio, 2% DMG-PEG2000; type: cell-based; details: 24 h; for Observed Luciferase Expression (RLU) for Given Formulation Mass Ratio 2:1: 2% (w/w) DMG-PEG2000, peptoid:mRNA 2:1; for Observed Luciferase Expression (RLU) for Given Formulation Mass Ratio 3.5:1: 2% (w/w) DMG-PEG2000, peptoid:mRNA 3.5:1; for Observed Luciferase Expression (RLU) for Given Formulation Mass Ratio 5:1: 2% (w/w) DMG-PEG2000, peptoid:mRNA 5:1; for Observed Luciferase Expression (RLU) for Given Formulation Mass Ratio 7.5:1: 2% (w/w) DMG-PEG2000, peptoid:mRNA 7.5:1
Procedure, shortened: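 Fluc mRNA particles formulated at 2:1, 3.5:1, 5:1 and 7.5:1 peptoid:mRNA (w/w), with DMG-PEG2000 at 2% (w/w) relative to amino lipidated peptoid. HeLa cells treated for 24 hours; Fluc expression read as bioluminescence (RLU).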

[5] = MTT viability assay after treatment with Fluc mRNA/amino lipidated peptoid formulations; type: cell-based; details: human, HeLa cells
Procedure, shortened: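 Formulations (peptoid:mRNA 5:1 mass ratio, 2% w/w DMG-PEG2000) were applied at 100 ng Fluc mRNA per well for 8 h, followed by 48 h of growth. Cells then received 1.5 mg/mL MTT for 2 h, and formazan signal was normalized to untreated cells.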

Balb/c mice [6] = test: In vivo whole-body expression of Fluc following IV administration; details: Balb/c mice (n=3), IV tail-vein, 0.5 mg/kg, 5:1 peptoid:mRNA, 2% w/w DMG-PEG2000, 8 hours
Experimental: (§1) Amino lipidated peptoid delivery vehicles are effective for in vivo administration of Fluc mRNA to Balb/c mice (n=3) through multiple routes of administration. Briefly, representative amino lipidated peptoid/Fluc formulations (prepared at a 5:1 mass ratio of amino lipidated peptoid:mRNA unless noted, with 2% w/w DMG-PEG2000) were administered at a dose of 0.5 mg/kg via a tail-vein injection, and the resulting bioluminescence was quantified after 8 hours.

Balb/c mice [7] = test: In vivo organ-specific bioluminescence (biodistribution of Fluc) following IV administration; details: for Total Flux (p/s) Liver: dissected liver; for Total Flux (p/s) Lung: dissected lung; for Total Flux (p/s) Spleen: dissected spleen
Experimental: as §1, with “hours. […] Organ-specific bioluminescence was quantified by sacrificing the treated animal, dissecting out the organs of interest, and separately quantifying the resulting bioluminescence. […] FIG. 7C depicts a bar chart quantifying the organ-specific biodistribution of the formulations as a function of total photon flux.” for “hours.”

Balb/c mice [8] = test: In vivo expression of Fluc following subcutaneous or intramuscular administration
Experimental: In addition to IV administration, amino lipidated peptoids are also effective for local administration of mRNA through subcutaneous (S.C.) or intramuscular (I.M.) routes of administration. […] For these examples, mRNA was administered at a dose of 0.1 milligrams/kilogram (mpk) for subcutaneous or 0.05 mpk for intramuscular. In these cases, the overall expression was higher following intramuscular injections. […] Additional experiments were carried out to assess any variability in biodistribution as a function of the loading mass ratio of amino lipidated peptoid to the Fluc mRNA. FIG. 8A depicts a plot of total photon flux for formulations of amino lipidated peptoid compound 28 with 2% DMG-PEG 2000 and Fluc mRNA at different peptoid:mRNA ratios (1:1, 2:1, 5:1, 7.5:1 and 10:1).

[9] = no PEG, peptoid:Fluc mRNA 5:1 w/w, 100 ng/well, 6 h of treatment
[10] = no PEG, peptoid:Fluc mRNA 5:1 w/w, 100 ng/well, 24 h of treatment
[11] = with 2% (w/w) DMG-PEG2000, peptoid:mRNA 5:1, 6 h after treatment
[12] = with 2% (w/w) DMG-PEG2000, peptoid:mRNA 5:1, 24 h after treatment

| SMILES | Size PDI [1] | Size (nm) [1] | % Encapsulation [2] | Luciferase Expression (RLU) 6 h (HeLa cells [3]; [9]) | Luciferase Expression (RLU) 24 h (HeLa cells [3]; [10]) | Luciferase Expression (RLU) 6 h (HeLa cells [3]; [11]) | Luciferase Expression (RLU) 24 h (HeLa cells [3]; [12]) | Observed Luciferase Expression (RLU) for Given Formulation Mass Ratio 2:1 (HeLa cells [4]) | Observed Luciferase Expression (RLU) for Given Formulation Mass Ratio 3.5:1 (HeLa cells [4]) | Observed Luciferase Expression (RLU) for Given Formulation Mass Ratio 5:1 (HeLa cells [4]) | Observed Luciferase Expression (RLU) for Given Formulation Mass Ratio 7.5:1 (HeLa cells [4]) | viability at 8 h, 500 ng/well ([5]; Relative Viability (%) 2% PEG) | viability at 8 h, 500 ng/well ([5]; Relative Viability (%) No PEG) | Total Flux (photons/sec), whole body (Balb/c mice [6]) | Total Flux (p/s) Liver (Balb/c mice [7]) | Total Flux (p/s) Lung (Balb/c mice [7]) | Total Flux (p/s) Spleen (Balb/c mice [7]) | Total Flux (photons/sec) I.M. (0.05 mpk) (Balb/c mice [8]; intramuscular, mRNA 0.05 mpk) | Total Flux (photons/sec) S.C. (0.1 mpk) (Balb/c mice [8]; subcutaneous, mRNA 0.1 mpk) |
| --- | --- | --- | --- | --- | --- | --- | --- | --- | --- | --- | --- | --- | --- | --- | --- | --- | --- | --- | --- |
| CCCCCCCCCCN(CC(N)=O)C(=O)CN(CCCCCCCCCC)C(=O)CN(CCc1ccccc1)C(=O)CN(CCc1ccccc1)C(=O)CN(CCN)C(=O)CN(CCc1ccccc1)C(=O)CN(CCc1ccccc1)C(=O)CN(CCN)C(=O)CN(CCc1ccccc1)C(=O)CN(CCc1ccccc1)C(=O)CNCCN [Compound 2] | 0.128 | 150 nm | 100.3% | 2.35E+02 RLU | 1.35E+02 RLU | 5.40E+01 RLU | 1.17E+02 RLU | 2.45E+04 RLU | 1.80E+04 RLU | 2.81E+04 RLU | 1.49E+03 RLU | 92.6% | 90.6% | 1.37E+07 photons/sec | 1.40E+06 p/s | 2.46E+07 p/s | 3.39E+06 p/s | 1.27E+05 photons/sec | 8.31E+04 photons/sec |
| CCCCCCCCCCN(CC(N)=O)C(=O)CN(CCCCCCCCCC)C(=O)CN(CCN)C(=O)CN(CCN)C(=O)CNCCN [Compound 14] | 0.233 | 554 nm | 77.3% | 3.20E+01 RLU | 1.43E+01 RLU | 4.67E+00 RLU | 9.00E+00 RLU | 8.31E+01 RLU | 1.42E+02 RLU | 4.29E+01 RLU | 2.82E+01 RLU | 91% |  | 4.58E+05 photons/sec | 4.47E+04 p/s | 4.17E+04 p/s | 4.89E+04 p/s |  |  |
| CCCCCCCCCCN(CC(N)=O)C(=O)CN(CCCCCCCCCC)C(=O)CN(CCCCCCCCCC)C(=O)CN(CCCCCCCCCC)C(=O)CN(CCc1ccccc1)C(=O)CN(CCc1ccccc1)C(=O)CN(CC1CCNCC1)C(=O)CN(CCc1ccccc1)C(=O)CN(CCc1ccccc1)C(=O)CN(CC1CCNCC1)C(=O)CN(CCc1ccccc1)C(=O)CN(CCc1ccccc1)C(=O)CNCC1CCNCC1 [Compound 31] | 0.404 | 348.5 nm | 35.7% | 5.84E+02 RLU | 2.93E+03 RLU | 4.30E+02 RLU | 2.63E+02 RLU | 2.07E+02 RLU | 5.70E+02 RLU | 3.77E+03 RLU | 2.05E+03 RLU | 98.4% | 83.8% |  |  |  |  |  |  |
| CCCCCCCCCCN(CC(N)=O)C(=O)CN(CCCCCCCCCC)C(=O)CN(CCCCCCCCCC)C(=O)CN(CCCCCCCCCC)C(=O)CN(CCc1ccccc1)C(=O)CN(CCc1ccccc1)C(=O)CN(CC1CCNCC1)C(=O)CN(CCc1ccccc1)C(=O)CN(CCc1ccccc1)C(=O)CN(CC1CCNCC1)C(=O)CN(CCc1ccccc1)C(=O)CN(CCc1ccccc1)C(=O)CN(CC1CCNCC1)C(=O)CN(CCc1ccccc1)C(=O)CN(CCc1ccccc1)C(=O)CNCC1CCNCC1 [Compound 32] | 0.274 | 247.5 nm | 50.9% | 4.25E+02 RLU | 2.00E+03 RLU | 4.82E+02 RLU | 3.40E+02 RLU | 1.82E+02 RLU | 3.09E+02 RLU | 3.77E+03 RLU | 3.37E+03 RLU | 102% | 90.7% |  |  |  |  |  |  |
| CCCCCCCCCCN(CC(N)=O)C(=O)CN(CCCCCCCCCC)C(=O)CN(CCc1ccccc1)C(=O)CN(CCc1ccccc1)C(=O)CN(CC1CCNCC1)C(=O)CN(CCc1ccccc1)C(=O)CN(CCc1ccccc1)C(=O)CN(CC1CCNCC1)C(=O)CN(CCc1ccccc1)C(=O)CN(CCc1ccccc1)C(=O)CNCC1CCNCC1 [Compound 33] | 0.048 | 435.7 nm | 82.0% | 4.61E+03 RLU | 1.14E+04 RLU | 4.64E+02 RLU | 5.17E+02 RLU | 1.76E+04 RLU | 6.62E+02 RLU | 7.46E+02 RLU | 3.12E+02 RLU | 98% | 99.4% |  |  |  |  |  |  |
| CCCCCCCCCCN(CC(N)=O)C(=O)CN(CCCCCCCCCC)C(=O)CN(CCc1ccccc1)C(=O)CN(CCc1ccccc1)C(=O)CN(CC1CCCN1)C(=O)CN(CCc1ccccc1)C(=O)CN(CCc1ccccc1)C(=O)CN(CC1CCCN1)C(=O)CN(CCc1ccccc1)C(=O)CN(CCc1ccccc1)C(=O)CNCC1CCCN1 (stereo not drawn) [Compound 36] | 0.127 | 374.4 nm | 71.5% | 9.34E+03 RLU | 7.78E+03 RLU | 3.36E+02 RLU | 7.45E+02 RLU | 9.24E+02 RLU | 4.18E+02 RLU | 5.17E+02 RLU | 6.71E+02 RLU | 108% | 93.6% |  |  |  |  |  |  |

From US20220323594A1, “LIPIDATED CATIONIC PEPTIDE-PEG COMPOSITIONS FOR NUCLEIC ACID DELIVERY” (NUTCRACKER THERAPEUTICS, INC., priority 2019, published 2022)
